Measured values taken from US10870647B2, “Imidazopyridine derivative, method for preparing same, and pharmaceutical composition containing same as active ingredient for preventing or treating cancer” (DAEGU-GYEONGBUK MEDICAL INNOVATION FOUNDATION, priority 2016, dated 2020).

How the values were obtained:
Assay in all cases: Kinase selectivity, scanMAX Kinase assay panel (DiscoverX), % control at 1 uM
Type in all cases: binding
[1] = biological target: T1, scanMAX Kinase assay panel (Homo sapiens, UniProt Q9NY57); conditions: YANK2; 1 uM; read-out: Percent Control (%)
T1 construct: purchased DiscoverX
How it was run: (§1)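 Binding across the scanMAX kinase panel was tested at 1 uM compound. % control = (compound − positive control)/(negative control − positive control) × 100; below 35 counted as active.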

[2] = biological target: T2, scanMAX Kinase assay panel (Homo sapiens, UniProt Q13470); conditions: TNK1; 1 uM; read-out: Percent Control (%)
T2 construct: purchased DiscoverX
T2 sequence (Q13470 1-666): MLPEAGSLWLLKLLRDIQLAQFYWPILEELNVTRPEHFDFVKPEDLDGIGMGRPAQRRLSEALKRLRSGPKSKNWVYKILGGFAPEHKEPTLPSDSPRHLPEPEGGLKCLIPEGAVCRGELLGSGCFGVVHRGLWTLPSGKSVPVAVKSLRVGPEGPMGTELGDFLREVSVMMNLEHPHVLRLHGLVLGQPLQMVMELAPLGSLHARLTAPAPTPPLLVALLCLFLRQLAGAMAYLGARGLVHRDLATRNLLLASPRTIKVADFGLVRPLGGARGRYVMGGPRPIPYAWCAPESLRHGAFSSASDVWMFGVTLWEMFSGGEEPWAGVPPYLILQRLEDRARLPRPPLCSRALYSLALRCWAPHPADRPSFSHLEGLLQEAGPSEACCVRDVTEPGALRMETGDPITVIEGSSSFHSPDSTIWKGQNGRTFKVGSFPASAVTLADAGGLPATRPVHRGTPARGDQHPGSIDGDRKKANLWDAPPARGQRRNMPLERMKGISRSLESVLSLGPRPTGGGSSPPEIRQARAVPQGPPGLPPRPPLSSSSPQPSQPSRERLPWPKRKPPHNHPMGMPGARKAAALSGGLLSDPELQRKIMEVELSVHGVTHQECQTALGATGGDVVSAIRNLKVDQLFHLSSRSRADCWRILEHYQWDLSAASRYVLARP
How it was run: as §1

[3] = biological target: T3, scanMAX Kinase assay panel (Homo sapiens, UniProt P04626); conditions: ERBB2; 1 uM; read-out: Percent Control (%)
T3 construct: purchased DiscoverX
How it was run: as §1

[4] = biological target: T4, scanMAX Kinase assay panel (Homo sapiens, UniProt Q8IW41); conditions: MAPKAPK5; 1 uM; read-out: Percent Control (%)
T4 construct: purchased DiscoverX
T4 sequence (Q8IW41 1-473): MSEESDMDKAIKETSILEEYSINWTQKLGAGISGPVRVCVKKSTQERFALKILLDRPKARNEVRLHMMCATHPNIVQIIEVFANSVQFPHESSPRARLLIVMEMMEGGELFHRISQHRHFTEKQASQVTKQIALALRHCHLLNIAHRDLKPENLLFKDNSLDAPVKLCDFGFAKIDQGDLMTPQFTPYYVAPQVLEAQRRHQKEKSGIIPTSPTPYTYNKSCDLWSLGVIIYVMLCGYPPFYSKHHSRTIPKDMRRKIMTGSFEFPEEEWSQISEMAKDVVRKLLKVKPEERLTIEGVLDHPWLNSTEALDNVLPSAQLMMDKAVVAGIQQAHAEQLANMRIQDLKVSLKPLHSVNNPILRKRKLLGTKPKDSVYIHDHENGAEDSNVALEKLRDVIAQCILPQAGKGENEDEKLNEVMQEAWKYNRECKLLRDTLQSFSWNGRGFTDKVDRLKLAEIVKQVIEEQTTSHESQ
How it was run: as §1

[5] = biological target: T5, scanMAX Kinase assay panel (Homo sapiens, UniProt O15111); conditions: IKK-alpha; 1 uM; read-out: Percent Control (%)
T5 construct: purchased DiscoverX
T5 sequence (O15111 1-745): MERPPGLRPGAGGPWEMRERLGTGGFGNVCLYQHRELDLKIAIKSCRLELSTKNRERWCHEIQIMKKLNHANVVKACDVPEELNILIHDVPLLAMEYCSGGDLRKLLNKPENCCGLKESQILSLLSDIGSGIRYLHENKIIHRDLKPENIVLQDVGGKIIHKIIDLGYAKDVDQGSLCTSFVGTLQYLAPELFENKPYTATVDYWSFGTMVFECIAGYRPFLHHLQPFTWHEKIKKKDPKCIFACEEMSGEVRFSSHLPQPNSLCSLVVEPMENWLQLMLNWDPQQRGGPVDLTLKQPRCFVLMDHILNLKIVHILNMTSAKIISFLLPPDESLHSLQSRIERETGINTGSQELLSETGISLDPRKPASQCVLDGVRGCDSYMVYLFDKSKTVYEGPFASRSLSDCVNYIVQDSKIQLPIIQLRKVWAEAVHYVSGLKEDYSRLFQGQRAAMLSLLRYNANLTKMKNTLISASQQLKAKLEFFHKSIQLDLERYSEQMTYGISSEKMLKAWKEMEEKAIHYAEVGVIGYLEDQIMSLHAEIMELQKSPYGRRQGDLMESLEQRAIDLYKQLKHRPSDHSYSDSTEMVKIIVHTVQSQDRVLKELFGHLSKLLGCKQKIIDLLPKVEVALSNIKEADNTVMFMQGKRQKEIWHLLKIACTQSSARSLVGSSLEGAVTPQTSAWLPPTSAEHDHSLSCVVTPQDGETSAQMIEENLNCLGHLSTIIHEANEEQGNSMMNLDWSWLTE
How it was run: as §1

[6] = biological target: T6, scanMAX Kinase assay panel (Homo sapiens, UniProt Q9H0K1); conditions: SIK2; 1 uM; read-out: Percent Control (%)
T6 construct: purchased DiscoverX
How it was run: as §1

T1 sequence (Q9NY57 whole entry): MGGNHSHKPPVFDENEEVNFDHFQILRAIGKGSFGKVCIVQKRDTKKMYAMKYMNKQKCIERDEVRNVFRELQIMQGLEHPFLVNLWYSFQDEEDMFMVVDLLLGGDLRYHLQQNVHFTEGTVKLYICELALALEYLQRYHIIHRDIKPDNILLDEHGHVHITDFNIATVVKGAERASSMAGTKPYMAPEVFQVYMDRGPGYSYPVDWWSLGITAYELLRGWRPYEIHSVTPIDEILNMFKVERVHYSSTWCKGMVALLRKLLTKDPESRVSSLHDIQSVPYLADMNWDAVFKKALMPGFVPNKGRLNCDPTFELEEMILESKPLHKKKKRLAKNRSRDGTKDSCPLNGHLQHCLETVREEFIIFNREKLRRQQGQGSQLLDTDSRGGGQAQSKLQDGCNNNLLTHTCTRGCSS
T6 sequence (Q9H0K1 whole entry): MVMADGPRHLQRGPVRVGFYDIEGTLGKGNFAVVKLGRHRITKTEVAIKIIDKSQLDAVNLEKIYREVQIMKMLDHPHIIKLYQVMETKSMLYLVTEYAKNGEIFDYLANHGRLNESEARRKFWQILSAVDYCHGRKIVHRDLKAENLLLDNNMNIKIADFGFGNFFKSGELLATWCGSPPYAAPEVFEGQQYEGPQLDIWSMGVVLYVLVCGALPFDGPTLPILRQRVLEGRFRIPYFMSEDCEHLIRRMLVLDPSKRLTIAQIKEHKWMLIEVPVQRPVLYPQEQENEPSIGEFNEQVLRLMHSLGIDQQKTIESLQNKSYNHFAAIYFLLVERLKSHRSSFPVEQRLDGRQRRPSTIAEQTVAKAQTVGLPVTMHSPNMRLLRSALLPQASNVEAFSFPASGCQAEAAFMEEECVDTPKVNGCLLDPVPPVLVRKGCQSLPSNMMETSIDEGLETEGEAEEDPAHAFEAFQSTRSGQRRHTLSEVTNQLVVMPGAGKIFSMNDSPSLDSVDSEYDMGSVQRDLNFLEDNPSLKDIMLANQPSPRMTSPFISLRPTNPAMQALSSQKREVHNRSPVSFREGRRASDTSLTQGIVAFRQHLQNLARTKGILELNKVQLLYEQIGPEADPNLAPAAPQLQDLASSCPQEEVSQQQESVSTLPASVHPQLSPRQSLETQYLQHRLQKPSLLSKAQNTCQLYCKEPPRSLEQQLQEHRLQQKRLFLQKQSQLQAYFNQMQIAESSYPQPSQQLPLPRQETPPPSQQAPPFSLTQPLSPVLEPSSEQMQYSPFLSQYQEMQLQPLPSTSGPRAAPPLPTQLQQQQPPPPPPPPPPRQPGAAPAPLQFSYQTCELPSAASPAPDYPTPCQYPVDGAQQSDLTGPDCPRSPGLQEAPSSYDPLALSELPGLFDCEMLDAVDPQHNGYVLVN
T3 sequence (P04626 23-1255): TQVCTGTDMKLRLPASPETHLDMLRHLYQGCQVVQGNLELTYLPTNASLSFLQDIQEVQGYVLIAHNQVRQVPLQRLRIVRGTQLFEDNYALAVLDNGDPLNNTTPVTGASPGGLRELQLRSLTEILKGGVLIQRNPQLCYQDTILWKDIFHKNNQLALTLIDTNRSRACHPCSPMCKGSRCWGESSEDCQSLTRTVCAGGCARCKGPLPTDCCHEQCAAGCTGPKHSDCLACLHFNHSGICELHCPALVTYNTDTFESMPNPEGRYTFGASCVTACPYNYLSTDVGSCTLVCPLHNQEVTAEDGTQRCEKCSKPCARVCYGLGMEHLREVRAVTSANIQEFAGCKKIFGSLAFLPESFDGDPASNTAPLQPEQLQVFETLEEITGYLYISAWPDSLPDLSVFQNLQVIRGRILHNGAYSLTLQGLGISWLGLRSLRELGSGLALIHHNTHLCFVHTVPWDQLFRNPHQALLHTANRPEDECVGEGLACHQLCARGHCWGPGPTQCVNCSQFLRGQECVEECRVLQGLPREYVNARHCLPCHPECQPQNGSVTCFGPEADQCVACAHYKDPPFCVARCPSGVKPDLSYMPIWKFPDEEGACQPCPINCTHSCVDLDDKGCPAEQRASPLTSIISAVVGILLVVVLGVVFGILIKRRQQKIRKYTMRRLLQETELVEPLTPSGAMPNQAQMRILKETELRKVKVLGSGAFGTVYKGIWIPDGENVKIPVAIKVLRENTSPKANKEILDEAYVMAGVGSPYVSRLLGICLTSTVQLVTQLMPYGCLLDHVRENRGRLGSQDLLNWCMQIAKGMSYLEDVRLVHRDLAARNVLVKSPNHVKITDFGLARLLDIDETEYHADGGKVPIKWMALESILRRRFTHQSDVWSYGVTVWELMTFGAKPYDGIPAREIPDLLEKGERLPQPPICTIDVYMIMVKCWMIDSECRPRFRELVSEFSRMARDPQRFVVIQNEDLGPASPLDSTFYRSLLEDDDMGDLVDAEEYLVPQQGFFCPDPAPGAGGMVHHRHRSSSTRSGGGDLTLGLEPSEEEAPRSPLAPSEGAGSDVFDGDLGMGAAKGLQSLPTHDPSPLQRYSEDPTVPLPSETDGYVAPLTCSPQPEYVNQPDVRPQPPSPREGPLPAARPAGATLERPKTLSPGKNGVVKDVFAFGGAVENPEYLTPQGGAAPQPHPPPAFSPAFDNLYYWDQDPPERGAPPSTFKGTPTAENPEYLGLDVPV

SMILES | remaining binding at 1 µM [1] [%] | remaining binding at 1 µM [2] [%] | remaining binding at 1 µM [3] [%] | remaining binding at 1 µM [4] [%] | remaining binding at 1 µM [5] [%] | remaining binding at 1 µM [6] [%]
Cc1ccc(C(=O)Nc2ccc(CN3CCN(C)CC3)c(C(F)(F)F)c2)cc1C#Cc1cnc2c(Nc3cnn(C)c3)cccn12 [Example 1, 4-methyl-3-((8-((1-methyl-1H-pyrazol-4-yl)amino)imidazo[1,2-a]pyridin-3-yl)ethynyl)-N-(4-((4-methylpiperazin-1-yl)methyl)-3-(trifluoromethyl)phenyl)benzamide] | 100 | 0 | 1 | 100 | 2 | 44
Cc1cn(-c2cc(NC(=O)c3ccc(C)c(C#Cc4cnc5c(Nc6cnn(C)c6)cccn45)c3)cc(C(F)(F)F)c2)cn1 [Example 12, 4-methyl-N-(3-(4-methyl-1H-imidazol-1-yl)-5-(trifluoromethyl)phenyl)-3-((8-((1-methyl-1H-pyrazol-4-yl)amino)imidazo[1,2-a]pyridin-3-yl)ethynyl)benzamide] | 99 | 19 | 68 | 100 | 28 | 58
Cc1ccc(NC(=O)C2(C(=O)Nc3ccc(F)cc3)CC2)cc1C#Cc1cnc2c(Nc3cnn(C(C)C)c3)cccn12 [Example 78] | 100 | 100 | 81 | 100 | 100 | 53
